Laboratory results published in patent US7429670B2 (The Trustees of Columbia University in the City of New York, priority 2003, dated 2008).

Biological target: T1, human homomeric α1 GlyR (Homo sapiens, UniProt P23415)
T1 construct: expressed in transfected cells
T1 sequence (P23415 29-457): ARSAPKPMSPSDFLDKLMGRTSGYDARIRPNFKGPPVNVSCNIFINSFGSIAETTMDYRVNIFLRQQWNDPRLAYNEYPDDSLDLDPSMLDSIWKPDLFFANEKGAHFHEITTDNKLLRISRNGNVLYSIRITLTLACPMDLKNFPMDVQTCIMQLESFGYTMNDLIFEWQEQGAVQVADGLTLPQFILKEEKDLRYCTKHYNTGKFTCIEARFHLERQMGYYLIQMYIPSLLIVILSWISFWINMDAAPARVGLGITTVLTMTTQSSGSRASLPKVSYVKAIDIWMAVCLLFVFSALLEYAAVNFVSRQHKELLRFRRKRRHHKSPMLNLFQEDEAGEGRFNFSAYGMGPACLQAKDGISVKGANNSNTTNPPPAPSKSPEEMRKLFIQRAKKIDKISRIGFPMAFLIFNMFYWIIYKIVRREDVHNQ
Assay: Functional glycine receptor assay (FLIPR Membrane Potential Assay)
Format: cell-based
Set-up: antagonist activity at GlyR (in words): dose or concentration left out as unconfirmed
Conditions: for % inhibition: 100 μM test compound, α1 GlyR-HEK293 cells; for inhibition of the glycine responses: derivatives at a concentration of 100 mM, 100 mM glycine; for antagonist activity at GlyR (in words): derivatives as printed

[1] = 100 μM glycine-induced response, Table 2
[2] = 100 μM glycine-induced response, Table 3
[3] = 100 μM glycine-induced response, Table 4
[4] = response induced by 100 μM glycine, Table 5

1-(Morpholine-4-carbonyloxy)-10-(4-methoxy-benzyloxy)-GC [Compound 51]
% inhibition [1]: NI (Inhibition below 20% is characterized as no inhibition (NI))

1-(Morpholine-4-carbonyloxy)-10-benzyloxy-GC [Compound 41]
% inhibition [1]: NI (Inhibition below 20% is characterized as no inhibition (NI))

1-(Morpholine-4-carbonyloxy)-GC [Compound 59]
% inhibition [2]: NI (Inhibition below 20% is characterized as no inhibition (NI))

1-(Piperidine-carbonyloxy)-10-(4-methoxy-benzyloxy)-GC [Compound 52]
% inhibition [1]: NI (Inhibition below 20% is characterized as no inhibition (NI))

1-(Piperidine-carbonyloxy)-10-benzyloxy-GC [Compound 42]
% inhibition [1]: 31%

1-(Piperidine-carbonyloxy)-GC [Compound 60]
% inhibition [2]: 33%

1-Methylcarbamoyloxy-10-(4-methoxy-benzyloxy)-GC [Compound 49]
% inhibition [1]: NI (Inhibition below 20% is characterized as no inhibition (NI))

1-Methylcarbamoyloxy-10-benzyloxy-GC [Compound 39]
% inhibition [1]: NI (Inhibition below 20% is characterized as no inhibition (NI))

1-Methylcarbamoyloxy-GC [Compound 57]
% inhibition [2]: 76%
inhibition of the glycine responses: ca. 70%

1-tert-Butylcarbamoyloxy-10-(4-methoxy-benzyloxy)-GC [Compound 50]
% inhibition [1]: 33%

1-tert-Butylcarbamoyloxy-10-benzyloxy-GC [Compound 40]
% inhibition [1]: 42%

1-tert-Butylcarbamoyloxy-GC [Compound 58]
% inhibition [2]: 71%
inhibition of the glycine responses: ca. 70%

7-(Morpholine-4-carbonyloxy)-10-(4-methoxy-benzyloxy)-GC [Compound 46]
% inhibition [1]: NI (Inhibition below 20% is characterized as no inhibition (NI))

7-(Morpholine-4-carbonyloxy)-10-benzyloxy-GC [Compound 36]
% inhibition [1]: NI (Inhibition below 20% is characterized as no inhibition (NI))

7-(Morpholine-4-carbonyloxy)-GC [Compound 55]
% inhibition [2]: 44%

7-(Piperidine-carbonyloxy)-10-(4-methoxy-benzyloxy)-GC [Compound 47]
% inhibition [1]: 29%

7-(Piperidine-carbonyloxy)-10-benzyloxy-GC [Compound 37]
% inhibition [1]: NI (Inhibition below 20% is characterized as no inhibition (NI))

7-(Piperidine-carbonyloxy)-GC [Compound 56]
% inhibition [2]: 34%

7-Methylcarbamoyloxy-10-(4-methoxy-benzyloxy)-GC [Compound 44]
% inhibition [1]: NI (Inhibition below 20% is characterized as no inhibition (NI))

7-Methylcarbamoyloxy-10-benzyloxy-GC [Compound 34]
% inhibition [1]: NI (Inhibition below 20% is characterized as no inhibition (NI))

7-Methylcarbamoyloxy-GC [Compound 53]
% inhibition [2]: NI (Inhibition below 20% is characterized as no inhibition (NI))

7-tert-Butylcarbamoyloxy-10-(4-methoxy-benzyloxy)-GC [Compound 45]
% inhibition [1]: 39%

7-tert-Butylcarbamoyloxy-10-benzyloxy-GC [Compound 35]
% inhibition [1]: 29%

7-tert-Butylcarbamoyloxy-GC [Compound 54]
% inhibition [2]: NI (Inhibition below 20% is characterized as no inhibition (NI))

10-(2-Pyridinyl-methoxy)-GC [Compound 25]
% inhibition [3]: 75%
inhibition of the glycine responses: 75%

10-(2-Pyridinyl-methoxy)-GC-7-benzoate [Compound 29]
% inhibition [3]: 51%

10-(4-Methoxy-benzyloxy)-GC [Compound 24]
% inhibition [3]: 52%

10-(4-Methoxy-benzyloxy)-GC-1-benzoate [Compound 28]
% inhibition [3]: NI (Inhibition below 20% is characterized as no inhibition (NI))

10-(4-Methoxy-benzyloxy)-GC-7-benzoate [Compound 26]
% inhibition [3]: 35%

10-(4-Methoxy-benzyloxy)-isoGC-1,6-bisacetate [Compound 20]
% inhibition [4]: 36%

10-(4-Methoxy-benzyloxy)-isoGC-6-benzoate [Compound 27]
% inhibition [4]: 49%

10-Benzyloxy-GC [Compound 16]
% inhibition [3]: 59%

10-Benzyloxy-GC-1-benzoate [Compound 23]
% inhibition [3]: 60%

10-Benzyloxy-GC-7-benzoate [Compound 21]
% inhibition [3]: 45%

10-Benzyloxy-isoGC-1,6-bisacetate [Compound 19]
% inhibition [4]: 21%

10-Benzyloxy-isoGC-1,6-bisbenzoate [Compound 22]
% inhibition [4]: 42%

10-Benzyloxy-isoGC-6-benzoate [Compound 17]
inhibition of glycine responses (30 uM concentration of test compound): 39%
% inhibition [4]: 90%
inhibition of the glycine responses: 90%

GC-1-benzoate [Compound 32]
% inhibition [3]: NI (Inhibition below 20% is characterized as no inhibition (NI))
antagonist activity at GlyR (in words): complete loss in activity

GC-7-benzoate [Compound 30]
% inhibition [3]: NI (Inhibition below 20% is characterized as no inhibition (NI))
antagonist activity at GlyR (in words): complete loss in activity

IsoGC-6-benzoate [Compound 31]
% inhibition [4]: 63%
